Measured values taken from article PMC9681850, “Structural basis of synthetic agonist activation of the nuclear receptor REV-ERB” (Nature Communications, 2022).
pEC50, pKi: −log10 of the molar value. Where “and” joins values, the source holds several entries; their conditions need not be identical. Identical values can stand only once. Like-named read-outs stand apart in the source and are kept apart here.

Columns and labels:
Alpha1B = target: T1, Alpha1B (Homo sapiens, UniProt P35368); assay: PDSP radioligand binding assay; conditions: read-out: RLBA Ki
T1 construct: NIMH Psychoactive Drug Screening Program (assay performed there)
Text: (§1) Receptor RLBA Ki Receptor activity
(§2) Suppl ementary Tabl e 1. Speci fi ci ty of STL1267. […]

5-HT7A = target: T2, 5-HT7A (Homo sapiens, UniProt P34969); assay: PDSP radioligand binding assay; conditions: read-out: RLBA Ki
T2 construct: NIMH Psychoactive Drug Screening Program (assay performed there)
Text: as §1, §2

5-HT1A = target: T3, 5-HT1A (Homo sapiens, UniProt P08908); assay: PDSP radioligand binding assay; conditions: read-out: RLBA Ki
T3 construct: NIMH Psychoactive Drug Screening Program (assay performed there)
Text: as §1, §2

D3 = D3 (Homo sapiens, UniProt P35462); assay: PDSP radioligand binding assay; conditions: read-out: RLBA Ki
Text: as §1, §2

D4 = D4 (Homo sapiens, UniProt P21917); assay: PDSP radioligand binding assay; conditions: read-out: RLBA Ki
Text: as §1, §2

GABAA = assay: PDSP radioligand binding assay; conditions: read-out: RLBA Ki
Text: as §1, §2

5-HT1E = target: T4, 5-HT1E (Homo sapiens, UniProt P28566); assay: PDSP radioligand binding assay; conditions: read-out: RLBA Ki
T4 construct: NIMH Psychoactive Drug Screening Program (assay performed there)
Text: as §1, §2

MOR = MOR (Homo sapiens, UniProt P35372); assay: PDSP radioligand binding assay; conditions: read-out: RLBA Ki
Text: as §1, §2

H2 = H2 (Homo sapiens, UniProt P25021); assay: PDSP radioligand binding assay; conditions: read-out: RLBA Ki
Text: as §1, §2

Alpha2A = target: T5, Alpha2A (Homo sapiens, UniProt P08913); assay: PDSP radioligand binding assay; conditions: read-out: RLBA Ki
T5 construct: NIMH Psychoactive Drug Screening Program (assay performed there)
Text: as §1, §2

M4 = M4 (Homo sapiens, UniProt P08173); assay: PDSP radioligand binding assay; conditions: read-out: RLBA Ki
Text: as §1, §2

REV-ERBα LBD [1] = target: T6, REV-ERBα LBD (Homo sapiens, UniProt P20393); assay: scintillation proximity radioligand binding assay with 3H-STL1267; design: made in house; conditions: SPA
T6 sequence (P20393 284-614 limits assumed): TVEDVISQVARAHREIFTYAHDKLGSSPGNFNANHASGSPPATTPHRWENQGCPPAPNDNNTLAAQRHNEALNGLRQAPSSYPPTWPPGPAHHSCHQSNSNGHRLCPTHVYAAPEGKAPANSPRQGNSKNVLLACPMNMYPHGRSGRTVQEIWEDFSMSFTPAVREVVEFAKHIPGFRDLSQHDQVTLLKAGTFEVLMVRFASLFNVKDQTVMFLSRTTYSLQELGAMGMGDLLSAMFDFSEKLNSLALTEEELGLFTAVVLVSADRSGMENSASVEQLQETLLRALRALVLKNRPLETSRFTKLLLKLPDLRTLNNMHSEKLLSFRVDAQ

[2] = system: Bmal1 expression in liver; assay: Bmal1 expression in liver after i.p. administration; format: in vivo, C57Bl/6 J mice; conditions: mice, 50 mg/kg i.p., 12 h post administration, single animals
REV-ERBα = system: REV-ERBα; design: method as in ref 21 = [21]; 21. Bourotte, et al. Derivatives of 6-substituted triazolopyridazines as Rev-Erb agonists. (ed. States, U.) (United States, 2012).; conditions: enhancement of REV-ERBα/NCoR interaction, biochemical or cell-based assays; cited from earlier work
CAR = CAR (Homo sapiens, UniProt Q14994); assay: CAR assay; format: cell-based
FXR = FXR (Homo sapiens, UniProt Q96RI1); assay: Gal4-UAS reporter assay for nuclear receptor specificity; format: cell-based; conditions: Gal4 DBD-NR, HEK293 cells, 10 µM
Text: (§3) We assessed the specificity of STL1267 using both in house nuclear receptor Gal4-NR reporter assays and the NIMH Psychoactive Drug Screening Program (PDSP) assays. We assessed the specificity of STL1267 in the PDSP’s radioligand displacement assays, screening for binding to off-target GPCRs, ion channels, transporters, and other drug targets (Table S1). Of the 43 targets assessed in this panel, we observed no detectable binding in 41 of them. […] Additional assessment in serotonin transporter and kappa opioid receptor activity in a functional assay may be warranted to determine absolute specificity.
(§4) Receptor RLBA Ki Receptor activity […]
(§5) HEK293 cells transfected with Gal4-UAS l uc i f eras e and […]

GR = GR (Homo sapiens, UniProt P04150); assay: as above; format: cell-based; conditions: Gal4 DBD-NR, HEK293 cells, 10 µM
Text: as §3, §4, §5

RXRα = RXRα (Homo sapiens, UniProt P19793); assay: as above; format: cell-based; conditions: Gal4 DBD-NR, HEK293 cells, 10 µM; RXRa
Text: as §3, §4, §5

REV-ERBα LBD [3] = target: T6, REV-ERBα LBD; assay: FRET assay of NCoR ID1 CoRNR box recruitment; format: biochemical; design: agonist-dependent recruitment of NCoR ID1 CoRNR box to the REV-ERBα-LBD
Experimental: We noted a recent patent that described a series of REV-ERB agonists (6-substituted[1,2,4]triazolo[4,3-b]pyridazines) in assays that detected the ability of small molecules to enhance the interaction of REV-ERBα with NCoR either in biochemical or cell-based assays.
Histidine tagged REV-ERBα/β complexed with heme was added to each well to a final concentration of 4 nM. NCoR ID1 fluorescein (ref#PV4622, Batch# 1797468C) was added to each well to a final concentration of 150 nM, and terbium anti-histidine (ref#PV5895, batch 1730002B) was added to a final concentration of 1 nM. Mixture was incubated at room temperature on an orbital shaker for 1 h at 200 rpm. The lanthascreen assay protocol (Dual PMT, excitation 340 nm, dual emission 495/520, Gain 110/110) was used to read the plate.

T2 sequence (P34969 1-445 isoform P34969-2): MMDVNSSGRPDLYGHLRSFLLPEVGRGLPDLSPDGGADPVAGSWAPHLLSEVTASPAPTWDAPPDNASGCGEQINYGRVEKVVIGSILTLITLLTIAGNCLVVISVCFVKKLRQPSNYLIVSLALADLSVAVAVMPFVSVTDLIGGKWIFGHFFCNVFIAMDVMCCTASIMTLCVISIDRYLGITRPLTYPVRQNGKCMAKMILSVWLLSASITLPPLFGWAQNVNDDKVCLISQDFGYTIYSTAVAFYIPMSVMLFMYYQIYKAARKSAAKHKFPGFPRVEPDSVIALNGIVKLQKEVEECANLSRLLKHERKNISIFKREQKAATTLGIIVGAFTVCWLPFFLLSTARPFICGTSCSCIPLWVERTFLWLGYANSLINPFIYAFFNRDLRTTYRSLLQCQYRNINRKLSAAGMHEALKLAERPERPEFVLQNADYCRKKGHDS
FXR, sequence (Q96RI1 262-486 limits assumed): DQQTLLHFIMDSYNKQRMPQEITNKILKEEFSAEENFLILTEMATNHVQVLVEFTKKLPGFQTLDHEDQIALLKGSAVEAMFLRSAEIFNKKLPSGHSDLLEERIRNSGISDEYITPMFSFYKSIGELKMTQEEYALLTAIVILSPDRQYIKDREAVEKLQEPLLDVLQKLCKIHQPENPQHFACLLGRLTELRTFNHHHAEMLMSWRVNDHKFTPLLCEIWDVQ
RXRα, sequence (P19793 227-462 limits assumed): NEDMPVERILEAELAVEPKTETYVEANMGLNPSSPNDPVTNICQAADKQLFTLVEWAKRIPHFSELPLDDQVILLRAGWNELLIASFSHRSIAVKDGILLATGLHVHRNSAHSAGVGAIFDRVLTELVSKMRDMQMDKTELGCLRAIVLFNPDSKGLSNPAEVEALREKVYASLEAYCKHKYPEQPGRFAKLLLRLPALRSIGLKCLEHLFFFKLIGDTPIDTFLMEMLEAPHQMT
T3 sequence (P08908 whole entry, species assumed): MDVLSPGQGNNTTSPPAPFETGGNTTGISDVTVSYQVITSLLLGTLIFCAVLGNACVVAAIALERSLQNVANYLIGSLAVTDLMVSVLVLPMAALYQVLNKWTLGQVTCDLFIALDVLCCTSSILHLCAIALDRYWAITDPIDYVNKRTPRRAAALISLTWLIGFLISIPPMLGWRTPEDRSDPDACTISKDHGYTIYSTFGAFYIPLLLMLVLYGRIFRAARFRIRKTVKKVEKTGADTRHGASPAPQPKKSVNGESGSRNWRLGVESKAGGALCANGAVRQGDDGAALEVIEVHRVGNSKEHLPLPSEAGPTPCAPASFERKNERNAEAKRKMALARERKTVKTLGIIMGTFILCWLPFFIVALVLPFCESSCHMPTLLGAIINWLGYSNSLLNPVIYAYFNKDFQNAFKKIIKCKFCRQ
T5 sequence (P08913 whole entry): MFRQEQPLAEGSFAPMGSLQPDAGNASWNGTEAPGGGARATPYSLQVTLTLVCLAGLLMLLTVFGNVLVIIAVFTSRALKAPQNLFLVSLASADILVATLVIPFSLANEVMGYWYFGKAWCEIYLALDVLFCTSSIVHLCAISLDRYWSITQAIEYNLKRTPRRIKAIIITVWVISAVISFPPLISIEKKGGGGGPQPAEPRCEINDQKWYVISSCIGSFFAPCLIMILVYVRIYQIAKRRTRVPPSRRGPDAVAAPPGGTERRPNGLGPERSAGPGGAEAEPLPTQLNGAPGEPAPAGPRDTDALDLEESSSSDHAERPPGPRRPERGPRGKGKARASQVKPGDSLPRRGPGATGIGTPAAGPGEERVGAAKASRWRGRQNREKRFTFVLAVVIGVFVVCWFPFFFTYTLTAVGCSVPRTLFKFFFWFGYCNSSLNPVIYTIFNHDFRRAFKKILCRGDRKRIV
GR, sequence (P04150 524-777 limits assumed): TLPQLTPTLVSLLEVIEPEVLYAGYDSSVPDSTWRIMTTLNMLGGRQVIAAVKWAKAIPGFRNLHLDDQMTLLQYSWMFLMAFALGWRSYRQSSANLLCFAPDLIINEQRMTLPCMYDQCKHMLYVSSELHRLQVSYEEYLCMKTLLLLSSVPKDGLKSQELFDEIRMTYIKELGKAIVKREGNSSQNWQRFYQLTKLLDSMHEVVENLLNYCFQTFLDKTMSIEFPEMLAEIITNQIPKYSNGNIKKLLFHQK
D4, sequence (P21917 whole entry): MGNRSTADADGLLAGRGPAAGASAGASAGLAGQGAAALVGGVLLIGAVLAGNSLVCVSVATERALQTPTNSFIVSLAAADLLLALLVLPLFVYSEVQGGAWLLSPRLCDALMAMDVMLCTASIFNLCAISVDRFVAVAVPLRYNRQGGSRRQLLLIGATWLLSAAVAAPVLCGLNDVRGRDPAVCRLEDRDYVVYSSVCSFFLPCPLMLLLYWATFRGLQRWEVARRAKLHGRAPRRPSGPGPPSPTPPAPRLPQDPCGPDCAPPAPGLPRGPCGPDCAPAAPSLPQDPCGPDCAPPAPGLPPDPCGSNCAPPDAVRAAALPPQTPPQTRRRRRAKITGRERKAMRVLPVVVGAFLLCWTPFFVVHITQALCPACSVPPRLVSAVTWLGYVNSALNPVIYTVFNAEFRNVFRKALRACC
D3, sequence (P35462 whole entry): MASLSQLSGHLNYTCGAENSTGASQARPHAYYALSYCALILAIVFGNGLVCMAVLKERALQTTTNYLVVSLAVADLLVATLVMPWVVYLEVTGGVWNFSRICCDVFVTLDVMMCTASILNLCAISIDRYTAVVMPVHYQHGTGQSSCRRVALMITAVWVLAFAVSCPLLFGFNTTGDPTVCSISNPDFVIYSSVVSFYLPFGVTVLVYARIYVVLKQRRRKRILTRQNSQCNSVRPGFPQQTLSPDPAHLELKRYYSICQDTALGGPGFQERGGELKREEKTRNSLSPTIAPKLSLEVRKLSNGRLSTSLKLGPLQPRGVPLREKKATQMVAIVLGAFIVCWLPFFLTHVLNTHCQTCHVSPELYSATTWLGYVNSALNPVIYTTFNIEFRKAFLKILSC
T4 sequence (P28566 whole entry, species assumed): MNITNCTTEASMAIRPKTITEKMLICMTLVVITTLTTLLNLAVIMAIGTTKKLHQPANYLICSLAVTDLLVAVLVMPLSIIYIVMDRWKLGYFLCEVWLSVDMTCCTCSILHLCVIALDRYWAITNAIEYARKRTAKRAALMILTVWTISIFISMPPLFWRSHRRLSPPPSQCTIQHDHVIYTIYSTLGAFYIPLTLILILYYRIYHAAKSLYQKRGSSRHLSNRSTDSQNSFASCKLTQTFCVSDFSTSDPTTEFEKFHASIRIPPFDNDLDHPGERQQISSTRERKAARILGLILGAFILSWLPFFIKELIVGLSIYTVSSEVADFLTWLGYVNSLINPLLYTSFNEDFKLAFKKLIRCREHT
H2, sequence (P25021 whole entry): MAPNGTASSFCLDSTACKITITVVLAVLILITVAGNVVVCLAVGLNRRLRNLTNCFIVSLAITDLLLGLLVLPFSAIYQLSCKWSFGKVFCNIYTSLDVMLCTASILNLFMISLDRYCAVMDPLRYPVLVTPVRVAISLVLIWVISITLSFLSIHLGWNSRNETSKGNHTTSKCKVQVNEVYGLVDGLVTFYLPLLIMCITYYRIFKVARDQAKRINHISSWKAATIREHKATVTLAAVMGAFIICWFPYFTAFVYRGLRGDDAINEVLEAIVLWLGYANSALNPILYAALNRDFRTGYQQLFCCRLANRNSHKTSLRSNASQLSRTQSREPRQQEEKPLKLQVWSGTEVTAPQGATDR
M4, sequence (P08173 whole entry): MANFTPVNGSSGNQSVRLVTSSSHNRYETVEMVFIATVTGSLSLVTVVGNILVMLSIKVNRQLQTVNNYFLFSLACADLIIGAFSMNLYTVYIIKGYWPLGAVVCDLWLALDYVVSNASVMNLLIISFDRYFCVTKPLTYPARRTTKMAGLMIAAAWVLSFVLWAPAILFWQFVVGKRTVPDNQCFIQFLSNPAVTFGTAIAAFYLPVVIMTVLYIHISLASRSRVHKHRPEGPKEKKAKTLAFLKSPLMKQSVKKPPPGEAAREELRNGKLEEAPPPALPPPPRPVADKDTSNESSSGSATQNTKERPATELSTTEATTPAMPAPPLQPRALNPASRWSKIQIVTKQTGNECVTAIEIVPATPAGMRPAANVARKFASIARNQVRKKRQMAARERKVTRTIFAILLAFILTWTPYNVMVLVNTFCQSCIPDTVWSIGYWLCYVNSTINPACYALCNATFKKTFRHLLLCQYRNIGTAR
CAR, sequence (Q14994 whole entry, the tested form may be a part): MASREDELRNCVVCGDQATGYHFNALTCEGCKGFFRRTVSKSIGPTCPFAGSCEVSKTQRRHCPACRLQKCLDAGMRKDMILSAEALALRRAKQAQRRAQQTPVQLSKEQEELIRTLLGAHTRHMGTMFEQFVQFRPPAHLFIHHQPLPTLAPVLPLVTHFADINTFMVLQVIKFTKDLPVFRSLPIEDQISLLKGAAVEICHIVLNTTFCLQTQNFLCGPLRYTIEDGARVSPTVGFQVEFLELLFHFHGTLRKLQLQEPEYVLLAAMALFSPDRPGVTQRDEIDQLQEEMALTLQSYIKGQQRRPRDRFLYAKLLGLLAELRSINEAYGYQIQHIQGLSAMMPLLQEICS
MOR, sequence (P35372 whole entry): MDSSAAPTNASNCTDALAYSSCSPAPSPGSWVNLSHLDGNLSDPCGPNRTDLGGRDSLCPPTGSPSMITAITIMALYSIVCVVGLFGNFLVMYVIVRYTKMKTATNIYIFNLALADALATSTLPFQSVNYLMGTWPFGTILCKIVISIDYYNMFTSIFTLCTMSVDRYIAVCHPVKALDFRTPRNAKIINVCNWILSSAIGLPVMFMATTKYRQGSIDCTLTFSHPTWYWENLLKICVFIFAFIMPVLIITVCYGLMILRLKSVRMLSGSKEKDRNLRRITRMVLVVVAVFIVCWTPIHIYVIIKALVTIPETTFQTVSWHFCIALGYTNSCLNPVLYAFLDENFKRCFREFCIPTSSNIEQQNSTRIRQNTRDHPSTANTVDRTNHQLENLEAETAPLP

pKi (Alpha1B): < 5.00
pKi (5-HT7A): < 5.00
pKi (5-HT1A): < 5.00
pKi (D3): < 5.00
pKi (D4): < 5.00
pKi (GABAA): < 5.00
pKi (5-HT1E): < 5.00
pKi (MOR): < 5.00
pKi (H2): < 5.00
pKi (Alpha2A): < 5.00
pKi (M4): < 5.00
pKi (REV-ERBα LBD [1]; REV-ERBα LBD, read-out: Ki, displacement of 3H-STL1267): 6.80
potency relative to SR9009 in the radioligand binding assay (REV-ERBα LBD [1]): 4.3 fold
activity at CAR (CAR): did not have activity
activity (FXR): did not detect activity
activity (GR): did not detect activity
activity (RXRα): did not detect activity
efficacy of NCoR ID1 recruitment relative to SR9009 (REV-ERBα LBD [3]): roughly double
potency relative to SR9009 in the FRET assay (REV-ERBα LBD [3]): more than ten times greater
pEC50 (REV-ERBα LBD [3]; REV-ERBα-LBD): 6.89
potency relative to SR9009 in the FRET assay (REV-ERBα LBD [3]; listed as 1267): 14.6 fold
SMILES: Clc1nnc2ccc(Oc3ccccc3-c3ccccc3)nn12 [STL1267]
Bmal1 expression in liver [2]: effectively suppressed Bmal1 expression and 0.9475 and 0.6115 and 0.4288 and 0.62 and 0.8061 and 0.4099
potency (REV-ERBα): 0.1 to 0.3 µM
